# Experimental data published in US6235493A, “Amino acid substituted-cresyl violet, synthetic fluorogenic substrates for the analysis of agents in individual in vivo cells or tissue” (priority 1998, dated 2001).
# How the values were obtained:
# cathepsin B [1] = target: T1, cathepsin B (Rattus norvegicus, UniProt P00787); test: Cathepsin B activity in living rat hepatocytes (CSLM, (Z-Arg)^2 -cresyl violet); type: cell-based; conditions: living rat hepatocyte, 10 μM substrate (printed μm), 5 min, PBS
# T1 sequence (P00787 80-333): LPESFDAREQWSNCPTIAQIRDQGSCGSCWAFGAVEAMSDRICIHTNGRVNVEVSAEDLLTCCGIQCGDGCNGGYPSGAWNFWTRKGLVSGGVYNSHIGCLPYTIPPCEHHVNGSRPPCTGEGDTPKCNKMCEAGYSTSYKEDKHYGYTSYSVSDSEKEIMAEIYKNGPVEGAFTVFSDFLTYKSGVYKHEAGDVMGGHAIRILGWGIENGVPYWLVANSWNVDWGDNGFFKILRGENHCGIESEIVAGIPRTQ
# Procedure: (§1) Cathepsin B activity was detected in real-time in living CC531 cells and freshly prepared living rat hepatocytes after isolation by collagenase perfusion of livers of male mature rats after 24 h of starvation (47). At time point zero, cell preparations were diluted 20-fold in PBS containing either 10 μM (Z-Arg)^2 -cresyl violet (Enzyme Systems Products, Dublin, Calif.) as fluorogenic substrate for cathepsin B (48) or 10 μM substrate and 20 μM FMK (Protek, Dublin, Calif.), as selective cathepsin B inhibitor (40,41). The fluorogenic substrate is not fluorescent but after proteolytic cleavage, liberated cresyl violet is fluorescent. Synthesis of the substrate is described elsewhere in Ref. 48. The substrate was dissolved first in dimethyl formamide (final concentration in the incubation medium was 1% (v/v)). An aliquot of 100 μl of the cell suspensions was brought into a well formed by a stainless steel ring attached to a glass slide (49). Images of cells were captured in real-time with a Leica CSLM fitted to a Leica Fluovert inverted microscopic equipped with a PL APO oil-immersion objective (×63, NA 1.40). Excitation was performed at a wavelength of 560 nm and fluorescence was captured at greater than 580 nm. […] Images in the X-Y plane were recorded with intervals of 0.5 μm in the Z direction. […] Images were recorded in a 512×512 pixel format. […]
# cathepsin B [2] = target: T1, cathepsin B; test: Cathepsin B activity in living CC531 colon cancer cells (CSLM, (Z-Arg)^2 -cresyl violet); type: cell-based; conditions: living CC531 cells, 10 μM substrate (printed μm), 5 min, PBS
# Procedure: An established rat colon carcinoma cell line, CC531, was used for all experiments. The parental cell line was obtained from a 1,2-dimethylhydrazine-induced moderately differentiated and weakly immunogenic colon adenocarcinoma in WAG-Rij rats (44). Cells were cultured in vitro at 37° C. as monolayers in Dulbecco's modification of Eagle's medium (ICN Biomedicals, Irvine, Ayrshire, UK) supplemented with 10% (w/v) fetal bovine serum, 2 mM glutamine, 100 IU penicillin/ml and 100 μg streptomycin/ml. Cells were washed in PBS and, after detachment by scraping and centrifugation (250 g, room temperature, 10 min), a single cell suspension at a final concentration of 1×10^6 cancer cells in 50 μl of PBS was obtained with a viability of at least 95% (45,46). Cell suspension were either used for cytochemical purposes or for in vivo administration to induce metastases in the liver.
# Cathepsin B activity was detected in real-time in living CC531 cells and freshly prepared living rat hepatocytes after isolation by collagenase perfusion of livers of male mature rats after 24 h of starvation (47). At time point zero, cell preparations were diluted 20-fold in PBS containing either 10 μM (Z-Arg)^2 -cresyl violet (Enzyme Systems Products, Dublin, Calif.) as fluorogenic substrate for cathepsin B (48) or 10 μM substrate and 20 μM FMK (Protek, Dublin, Calif.), as selective cathepsin B inhibitor (40,41). The fluorogenic substrate is not fluorescent but after proteolytic cleavage, liberated cresyl violet is fluorescent. Synthesis of the substrate is described elsewhere in Ref. 48. The substrate was dissolved first in dimethyl formamide (final concentration in the incubation medium was 1% (v/v)). An aliquot of 100 μl of the cell suspensions was brought into a well formed by a stainless steel ring attached to a glass slide (49). Images of cells were captured in real-time with a Leica CSLM fitted to a Leica Fluovert inverted microscopic equipped with a PL APO oil-immersion objective (×63, NA 1.40). Excitation was performed at a wavelength of 560 nm and fluorescence was captured at greater than 580 nm. Excitation with the use of green light is harmless to living cells. The pinhole aperture was set at 100 giving an optimized image (50). With fixed pinhole, filter combination and a laser power setting adjusted to give minimal fading, the photomultiplier gain and photometric offset were optimized. Cells were subjected to optical serial sectioning after each 60 s of incubation up to 300 s. Images in the X-Y plane were recorded with intervals of 0.5 μm in the Z direction. For analysis, each optical section was averaged eight times. Images were recorded in a 512×512 pixel format. The size of each pixel represented 0.015 μm^2 in the object. […]
# [3] = test system: living hepatocytes and colon cancer cells; test: Penetration of cresyl violet-based substrates into living cells; type: cell-based, rat
# Procedure: as §1, with “Images of cells were captured in real-time with a Leica CSLM fitted to a Leica Fluovert inverted microscopic equipped with a PL APO oil-immersion objective (×63, NA 1.40).” left out
# The localization properties of cresyl violet in individual cells were investigated using confocal microscopy. […] The fluorescence is localized only in patches at the plasma membrane. […]
structure (smiles),measurement,setting,value
N=C(N)NCCC[C@H](NC(=O)OCc1ccccc1)C(=O)NC1=CC2Oc3cc(NC(=O)[C@H](CCCNC(=N)N)NC(=O)OCc4ccccc4)ccc3N=C2c2ccccc21 (stereo partly drawn) [[Z-Arg]^2-cresyl violet],localization of cathepsin B activity (cresyl violet fluorescence),cathepsin B [1],present in granular lysosome-like intracellular compartments
same,localization of cathepsin B activity (cresyl violet fluorescence),cathepsin B [2],found at the plasma membrane (large arrowheads) and intracellularly
same,cell penetration,[3],penetrate living cells
